From patent US20070021509A1, “Phosphate transport inhibitors” (priority 2001, published 2007)

How the values were obtained:
[1] = tested on: glucose transport (rabbit intestinal BBMV); experiment: In vitro BBMV assay, glucose transport inhibiting activity; type: biochemical; conditions: Table 14
Procedure: In the remaining wells, used for compound containing reactions, are placed MAX Control Buffer. The Hot Stock Plate was stored at room temperature. To each well of an appropriate 96-well filter plate was added approximately 200 μL Stop Buffer to pre-wet the filters for at least 15 minutes prior to assay. The “Compound Plate” was set-up by loading appropriate wells of a 96-well, polypropylene, V-bottom plate with compound solutions. This could be for testing inhibition at a single “screening” concentration, or to measure the potency of compounds by dose-response analysis at the appropriate concentrations. A “BBMV Plate” was set up by loading a 96-well, polypropylene, V-bottom plate with BBMVs at 0.5-2.0 mg/mL (prepared as described above). The BBMV Plate was kept on ice until just prior to the assay. The reaction was initiated by aspiration of the hot uptake buffers (19 uL), from the Hot Stock Plate, and the compound solutions (2 uL), from the Compound Plate, dispensing into an empty 96-well V-bottom plate (Assay Plate), then immediately aspirating the BBMVs (19 μL), from the BBMV Plate and dispensing into the same Assay Plate. The addition of the BBMVs to the assay plate marked the reaction start time. After 15 minutes, the reaction was quenched by addition of 200 μL of STOP buffer from a reservoir. The Stop Buffer was aspirated by vacuum from the wells, through the filters, of the pre-soaked filter plate using a filter plate manifold. The quenched reactions were aspirated and transferred to the filter plate under vacuum. The filters were washed 2 times with 200 μL STOP buffer under vacuum. The filter plate was removed, dried, and the bottom of the filter plate was sealed. To each well of the filter plate was added 50 μL of scintillant (Microscint-20). A top seal was then applied to the filter plate. The plate was incubated for approximately 20 minutes before reading for ^33P CPM on a scintillation counter (i.e., TopCount-Packard Instruments). Percent inhibition was calculated by comparing the CPM values from compound containing wells to the MAX and MIN controls on the same plate using the following formula. 1−((CPM−MIN)/(MAX−MIN)) IC50 values were calculated from non-linear regression analysis within an appropriate software package (i.e., Prism GraphPad).
The phosphate transport inhibitors indicated in Table 14 were tested in both an in vitro and an ex vivo assay to determine their activity. The in vitro assay is identical to the assay described in Example 66, with the exception that the glucose transport inhibiting activity of the compounds was also measured. Results are reported as the IC50 value for the various types of inhibition. A preferred compound will have high phosphate transport inhibiting activity, but little or no glucose transport inhibiting activity.

[2] = tested on: sodium-dependent phosphate uptake into isolated rabbit intestinal rings; experiment: Ex vivo 33P uptake into isolated rabbit intestinal rings; type: cell-based; set-up: concentration or dose not given beside the values; conditions: Table 14, 15-minute incubation
Procedure: For the ex vivo assay, ^33P uptake into isolated rabbit intestinal rings was measured using a modification of the method described by Crane and Mandelstam [Robert K. Crane and Paul Mandelstam “The active transport of sugars by various preparations of hamster intestine” Biochim. Biophys. Acta 45: 460-476, 1960; the contents of which are incorporated herein by reference]. Male New Zealand rabbits 2-3 kg in weight were aeuthinized by an i.v. injection of Fatal Pluse®. A midline laparotomy was performed and the duodenum from the pyloric junction to the ligament of Trietz isolated and excised. Segments of bowel were everted, cut into 2-4 mm ring-like pieces and placed into a modified Hepes-Buffered Ringer's solution in which Na^+ had been iso-osmotically replaced with N-methyl-D-glucamine. To measure phosphate uptake, six rings were incubated in a 50 ml conical tube containing a 10 ml volume of Ringer's solution, with or without Na^+, bubbled with 100% O2 and maintained at 37° C. 0.5 uCi/ml ^33P was then incubated with the rings for a 15-minute period, the tissue harvested, rinsed, blotted dry and weighed. Tissues were then solublized by digesting them in a 5 ml volume of Solvable® tissue solubilizer overnight at 50° C. and ^33P levels determined by scintillation counting. Sodium-dependent uptake of ^33P was calculated by determining the difference in uptake between rings incubated in the presence and absence of Na^+ in the Hepes-Buffered Ringer's solution. Results are reported as the percentage inhibition of phosphate and glucose uptake, respectively.

[3] = tested on: glucose uptake into isolated rabbit intestinal rings; experiment: Ex vivo glucose uptake into isolated rabbit intestinal rings; type: cell-based; set-up: concentration or dose not given beside the values; conditions: Table 14
Procedure: For the ex vivo assay, ^33P uptake into isolated rabbit intestinal rings was measured using a modification of the method described by Crane and Mandelstam [Robert K. Crane and Paul Mandelstam “The active transport of sugars by various preparations of hamster intestine” Biochim. Biophys. Acta 45: 460-476, 1960; the contents of which are incorporated herein by reference]. Male New Zealand rabbits 2-3 kg in weight were aeuthinized by an i.v. injection of Fatal Pluse®. A midline laparotomy was performed and the duodenum from the pyloric junction to the ligament of Trietz isolated and excised. Segments of bowel were everted, cut into 2-4 mm ring-like pieces and placed into a modified Hepes-Buffered Ringer's solution in which Na^+ had been iso-osmotically replaced with N-methyl-D-glucamine. […] […] Tissues were then solublized by digesting them in a 5 ml volume of Solvable® tissue solubilizer overnight at 50° C. and ^33P levels determined by scintillation counting. Sodium-dependent uptake of ^33P was calculated by determining the difference in uptake between rings incubated in the presence and absence of Na^+ in the Hepes-Buffered Ringer's solution. Results are reported as the percentage inhibition of phosphate and glucose uptake, respectively.

Row | IC50 [1] | Compound | % Phosphate Transport Inhibition [2] | % Glucose Transport Inhibition [3]
1 | 34 µM | O=C(Nc1cccc(C(F)(F)F)c1)Nc1ccc(F)c([N+](=O)[O-])c1 [Example 86, 1-(4-Fluoro-3-nitro-phenyl)-3-(3-trifluoromethyl-phenyl)-urea] | 30% | 4%
2 | 100 µM | COc1ccc(F)cc1CNC(=O)c1cc(Br)ccc1NS(=O)(=O)c1ccc(OC(F)(F)F)cc1 [Example 78, 5-Bromo-N-(5-fluoro-2-methoxy-benzyl)-2-(4-trifluoromethoxy-benzenesulfonylamino)-benzamide] | 45% | 4%
3 | 82 µM | O=C(Nc1cc(C(F)(F)F)cc(C(F)(F)F)c1)NC1CCCCC1 [Example 83, 1-Cyclohexyl-3-(3,5-Bistrifluoromethyl-phenyl)-urea] | 76% | 0%
4 | 54 µM | O=C(Nc1cccc(C(F)(F)F)c1)Nc1cccc(C(F)(F)F)c1 [Example 82, 1,3Bis(3-Trifluoromethylphenyl)urea] | 25% | 26%
5 | 63 µM | Cl.N=C(Nc1cc(C(F)(F)F)cc(C(F)(F)F)c1)Nc1cc(C(F)(F)F)cc(C(F)(F)F)c1 [Example 88, N,N′-Bis-(3,5-bis-trifluoromethyl-phenyl)-guanidine Hydrochloride] | 60% | 0%
6 | 88 µM | Cl.N=C(Nc1ccc(Cl)c(C(F)(F)F)c1)Nc1ccc(Cl)c(C(F)(F)F)c1 [Example 89, N,N′-Bis-(4-chloro-3-trifluoromethyl-phenyl)-guanidine Hydrochloride] | 44% | 0%
7 | 80 µM | O=C(NCc1ccc(OC(F)(F)F)cc1O)c1cc(Br)ccc1NS(=O)(=O)c1ccc(OC(F)(F)F)cc1 [Example 75, 5-Bromo-N-(2-hydroxy-4-trifluoromethoxy-benzyl)-2-(4-trifluoromethoxy-benzenesulfonylamino)-benzamide] | 56% | 0%
8 | > 100 µM | O=C(Nc1cccc(C(F)(F)F)c1)Nc1cc(Cl)ccc1Cl [Example 85, 1-(2,5-Dichloro-phenyl)-3-(3-trifluoromethyl-phenyl)-urea] | 58% | 0%
9 | > 100 µM | O=C(NCc1ccc(F)cc1)c1cc(Br)ccc1NS(=O)(=O)c1ccc(OC(F)(F)F)cc1 [Example 71, 5-Bromo-N-(4-fluoro-benzyl)-2-(4-trifluoromethoxy-benzenesulfonylamino)-benzamide] | 53% | 26%
10 | > 100 µM | COc1ccccc1CNC(=O)c1cc(Br)ccc1NS(=O)(=O)c1ccc(OC(F)(F)F)cc1 [Example 70, 5-Bromo-N-(2-methoxy-benzyl)-2-(4-trifluoromethoxy-benzenesulfonylamino)-benzamide] | 48% | 8%
11 | > 100 µM | Cl.N=C(Nc1ccc(C(F)(F)F)c(C(F)(F)F)c1)Nc1ccc(C(F)(F)F)c(C(F)(F)F)c1 [Example 90, N,N′-Bis-(3,4-bis-trifluoromethyl-phenyl)-guanidine Hydrochloride] | 93% | 0%
12 | 94 µM | Cl.N=C(Nc1ccc(Br)c(C(F)(F)F)c1)Nc1ccc(Br)c(C(F)(F)F)c1 [Example 87, N,N′-Bis-(4-bromo-3-trifluoromethyl-phenyl)-guanidine Hydrochloride] | 71% | 3%
13 | 99 µM | Cn1nc(C(C)(C)C)cc1C(=O)Nc1ccc(C(F)(F)F)cc1 [Example 84, 5-tert-Butyl-2-methyl-2H-pyrazole-3-carboxylic acid (4-trifluoromethyl-phenyl)-amide] | 41% | 21%
